In patent publication US8299267B2, “(3-hydroxy-4-amino-butan-2-yl) -3- (2-thiazol-2-yl-pyrrolidine-1-carbonyl) benzamide derivatives and related compounds as beta-secretase inhibitors for treating” (CoMentis, Inc., priority 2007, dated 2012):

Tests used:
[1] = biological target: memapsin 2 (Homo sapiens, UniProt P56817); test: Inhibition of memapsin 2 beta-secretase activity toward fluorogenic substrate FS-2; type: biochemical; conditions: memapsin 2, pH 4, 37° C., 20 minutes pre-incubation, substrate FS-2; read-out: M2Ki
Outline: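 Memapsin 2 was preincubated with compound 20 min at pH 4, 37 °C, then reacted with fluorogenic substrate FS-2 (MCA-SEVNLDAEFK-DNP), an APP-derived Swedish-variant peptide. Inhibition was followed kinetically by fluorescence.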

[2] = tested on: Aβ production in Chinese hamster ovary cells that over-express human APP695 with the London and Swedish mutations; test: Cellular Aβ IC50 determination (Aβ40 sandwich ELISA); type: cell-based; conditions: Cricetulus griseus; Aβ40 in CHO cells over-expressing human APP695, 24 h incubation
Outline: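 APP695 (London/Swedish)-overexpressing CHO cells were treated 48 h after seeding with serial dilutions from near 4 μM top concentration (0.4% DMSO) for 24 h at 37 °C. Secreted Aβ40 was quantified by sandwich ELISA relative to controls and fit to a 4-parameter IC50 model.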

Sequence of memapsin 2 (P56817 46-501): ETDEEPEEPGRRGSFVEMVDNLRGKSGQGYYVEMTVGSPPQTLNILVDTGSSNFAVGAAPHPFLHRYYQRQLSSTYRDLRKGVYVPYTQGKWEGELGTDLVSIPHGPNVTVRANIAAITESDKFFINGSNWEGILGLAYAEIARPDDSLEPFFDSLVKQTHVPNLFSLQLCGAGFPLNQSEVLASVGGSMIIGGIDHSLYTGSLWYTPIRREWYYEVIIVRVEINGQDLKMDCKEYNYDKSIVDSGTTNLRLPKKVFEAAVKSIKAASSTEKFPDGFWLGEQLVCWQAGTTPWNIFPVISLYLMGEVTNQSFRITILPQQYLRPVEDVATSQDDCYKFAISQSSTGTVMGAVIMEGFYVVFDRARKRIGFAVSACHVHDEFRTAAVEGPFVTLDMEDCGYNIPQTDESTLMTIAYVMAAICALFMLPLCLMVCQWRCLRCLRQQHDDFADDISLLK

Compound | Ki [1] [µM] | IC50 [2] [µM]
Cc1coc([C@H]2CCCN2C(=O)c2cncc(C(=O)N[C@@H](Cc3ccccc3)[C@H](O)CNCc3cccc(C(C)(C)C)c3)c2)n1 [Compound 76, N-((2S,3R)-4-(3-tert-butylbenzylamino)-3-hydroxy-1-phenylbutan-2-yl)-5-((R)-2-(4-methyloxazol-2-yl)pyrrolidine-1-carbonyl)nicotinamide] | < 0.1 | < 0.3
Cc1coc([C@H]2CCCN2C(=O)c2cc(CF)cc(C(=O)N[C@@H](Cc3ccccc3)[C@H](O)CNCc3cncc(C(C)C)c3)c2)n1 [Compound 77, 3-(fluoromethyl)-N-((2S,3R)-3-hydroxy-4-((5-isopropylpyridin-3-yl)methylamino)-1-phenylbutan-2-yl)-5-((R)-2-(4-methyloxazol-2-yl)pyrrolidine-1-carbonyl)benzamide] | < 0.1 | < 0.3
Cc1coc([C@H]2CCCN2C(=O)c2cc(CF)cc(C(=O)N[C@@H](Cc3ccccc3)[C@H](O)CNCc3cncc(C(C)(C)F)c3)c2)n1 [Compound 78, 3-(fluoromethyl)-N-((2S,3R)-4-((5-(2-fluoropropan-2-yl)pyridin-3-yl)methylamino)-3-hydroxy-1-phenylbutan-2-yl)-5-((R)-2-(4-methyloxazol-2-yl)pyrrolidine-1-carbonyl)benzamide] | < 0.1 | < 0.3
Cc1cc(C(=O)N[C@@H](Cc2ccccc2)[C@H](O)CNCc2cccc(C(F)(F)F)c2)cc(C(=O)N2CCC[C@@H]2c2nc(C)cs2)n1 [Compound 79, N-((2S,3R)-3-hydroxy-1-phenyl-4-(3-(trifluoromethyl)benzylamino)butan-2-yl)-2-methyl-6-((R)-2-(4-methylthiazol-2-yl)pyrrolidine-1-carbonyl)isonicotinamide] | < 0.1 | < 0.3

The next lines start with the values.

Ki [1] [µM] | IC50 [2] [µM] | Compound
< 0.1 | < 0.3 | Cc1coc([C@H]2CCCN2C(=O)c2cccc(C(=O)N[C@@H](Cc3ccccc3)[C@H](O)CNCc3cccc(C(C)(C)C)c3)c2)n1 [Compound 70, N-((2S,3R)-4-(3-tert-butylbenzylamino)-3-hydroxy-1-phenylbutan-2-yl)-3-((R)-2-(4-methyloxazol-2-yl)pyrrolidine-1-carbonyl)benzamide]
< 0.1 | < 0.3 | Cc1coc([C@H]2CCCN2C(=O)c2cncc(C(=O)N[C@@H](Cc3ccccc3)[C@H](O)CNCc3cncc(C(C)C)c3)c2)n1 [Compound 71, N-((2S,3R)-3-hydroxy-4-((5-isopropylpyridin-3-yl)methylamino)-1-phenylbutan-2-yl)-5-((R)-2-(4-methyloxazol-2-yl)pyrrolidine-1-carbonyl)nicotinamide]
< 0.1 | < 0.3 | Cc1coc([C@H]2CCCN2C(=O)c2cncc(C(=O)N[C@@H](Cc3ccccc3)[C@H](O)CNCc3cncc(C(C)(C)F)c3)c2)n1 [Compound 73, N-((2S,3R)-4-((5-(2-fluoropropan-2-yl)pyridin-3-yl)methylamino)-3-hydroxy-1-phenylbutan-2-yl)-5-((R)-2-(4-methyloxazol-2-yl)pyrrolidine-1-carbonyl)nicotinamide]
< 0.1 | < 0.3 | Cc1csc([C@H]2CCCN2C(=O)c2cc(C(=O)N[C@@H](Cc3ccccc3)[C@H](O)CNCc3cncc(C(C)C)c3)cc(-n3cccc3)c2)n1 [Compound 74, N-((2S,3R)-3-hydroxy-4-((5-isopropylpyridin-3-yl)methylamino)-1-phenylbutan-2-yl)-3-((R)-2-(4-methylthiazol-2-yl)pyrrolidine-1-carbonyl)-5-(1H-pyrrol-1-yl)benzamide]
< 0.1 | < 0.3 | Cc1csc([C@H]2CCCN2C(=O)c2cc(C(=O)N[C@@H](Cc3ccccc3)[C@H](O)CNCc3cccc(C(F)(F)F)c3)cc(-c3ccco3)n2)n1 [Compound 75, 2-(furan-2-yl)-N-((2S,3R)-3-hydroxy-1-phenyl-4-(3-(trifluoromethyl)benzylamino)butan-2-yl)-6-((R)-2-(4-methylthiazol-2-yl)pyrrolidine-1-carbonyl)isonicotinamide]
